Tests used:
estrogenicity = settings: Jobling and Sumpter 1993; cited from earlier work
[1] = test system: vitellogenin gene expression in trout hepatocytes; assay: Relative estrogenicity compared to estradiol; standard test procedure and stimulation of vitellogenin gene expression in trout hepatocytes; settings: for Relative Estrogenicity: compared to estradiol, assigned an estrogenicity value of unity; for estrogenicity (result in words): standard test procedure, vitellogenin gene expression in trout hepatocytes

| Compound | times less estrogenic compared to Estradiol (estrogenicity) | Relative Estrogenicity [1] | estrogenicity (result in words) [1] |
| --- | --- | --- | --- |
| CC(C)(C)c1ccc(O)cc1 [4-t-butylphenol] | 1,100 times | – | – |
| CC(C)(C)CC(C)(C)c1ccc(O)cc1 [4-t-octylphenol] | 1,200 times | 0.00037 | relatively high estrogenicity |
| C[C@]12CC[C@@H]3c4ccc(O)cc4CC[C@H]3[C@@H]1CC[C@@H]2O [Estradiol] | – | 1 | – |
| nonylphenol | 9,000 times | 0.000111 | relatively high estrogenicity |

From US7977284B2, “Non-estrogenic alkylphenol derivatives” (Oil Chem Technologies, Inc, priority 2009, dated 2011)
